Measured values taken from patent publication US12583855B2, “RET selective inhibitor, preparation method therefor and use thereof” (SHOUYAO HOLDINGS (BEIJING) CO., LTD., priority 2019, dated 2026).

What was measured:
[1] = biological target: T1, RET^WT (Homo sapiens, UniProt P07949); assay: In vitro enzymatic activity assay on RET^WT (HTRF); type: biochemical; conditions: GST-RET^WT (658-1114 aa) 0.5 nM, ATP 25 μM
T1 construct: GST-RET^WT (658-1114 aa, final concentration of 0.5 nM)
T1 sequence (P07949 658-1114): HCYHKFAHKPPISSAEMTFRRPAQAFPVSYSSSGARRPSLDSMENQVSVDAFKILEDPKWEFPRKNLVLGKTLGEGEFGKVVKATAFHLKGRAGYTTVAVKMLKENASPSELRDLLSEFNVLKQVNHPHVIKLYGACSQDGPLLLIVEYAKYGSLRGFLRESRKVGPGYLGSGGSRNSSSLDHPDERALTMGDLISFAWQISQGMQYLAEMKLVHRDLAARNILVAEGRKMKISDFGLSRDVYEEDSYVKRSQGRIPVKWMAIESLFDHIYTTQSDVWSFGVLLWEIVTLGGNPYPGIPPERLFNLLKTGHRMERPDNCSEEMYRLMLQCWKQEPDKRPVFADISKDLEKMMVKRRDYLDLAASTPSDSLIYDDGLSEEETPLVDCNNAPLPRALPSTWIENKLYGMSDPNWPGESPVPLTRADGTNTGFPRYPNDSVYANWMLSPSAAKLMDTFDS
Method: 1. In Vitro Enzymatic Activity Assay for Compounds on RET^WT
The compounds were diluted 5-fold with 100% DMSO starting from 0.2 mM (7 concentrations in total), and 2 μL of each concentration was added to 48 μL of reaction buffer (50 mM HEPES pH7.5, 0.1 mM Na3VO4, 5 mM MgCl2. 1 mM DTT, 0.001% Tween 20, and 100 μg/ml BSA) for dilution and mixing.
The 384-well plate was placed in an incubator and reacted at 23° C. for 2 h before the reaction was stopped by the addition of 5 μL of TK Antibody (purchased from Cisbio) and 5 μL of Streptavidin-XL665 (purchased from Cisbio). […] The enzymatic activity signal of RET^WT was measured at 7 concentrations for each compound and the data were calculated using GraphPad Prism software to obtain the IC50 value for the compound.

[2] = biological target: VEGFR2 (Homo sapiens, UniProt P35968); assay: In vitro enzymatic activity assay on VEGFR2 (HTRF); type: biochemical; conditions: GST-VEGFR2 0.1 nM, ATP 2.5 μM
VEGFR2, sequence (P35968 20-1356): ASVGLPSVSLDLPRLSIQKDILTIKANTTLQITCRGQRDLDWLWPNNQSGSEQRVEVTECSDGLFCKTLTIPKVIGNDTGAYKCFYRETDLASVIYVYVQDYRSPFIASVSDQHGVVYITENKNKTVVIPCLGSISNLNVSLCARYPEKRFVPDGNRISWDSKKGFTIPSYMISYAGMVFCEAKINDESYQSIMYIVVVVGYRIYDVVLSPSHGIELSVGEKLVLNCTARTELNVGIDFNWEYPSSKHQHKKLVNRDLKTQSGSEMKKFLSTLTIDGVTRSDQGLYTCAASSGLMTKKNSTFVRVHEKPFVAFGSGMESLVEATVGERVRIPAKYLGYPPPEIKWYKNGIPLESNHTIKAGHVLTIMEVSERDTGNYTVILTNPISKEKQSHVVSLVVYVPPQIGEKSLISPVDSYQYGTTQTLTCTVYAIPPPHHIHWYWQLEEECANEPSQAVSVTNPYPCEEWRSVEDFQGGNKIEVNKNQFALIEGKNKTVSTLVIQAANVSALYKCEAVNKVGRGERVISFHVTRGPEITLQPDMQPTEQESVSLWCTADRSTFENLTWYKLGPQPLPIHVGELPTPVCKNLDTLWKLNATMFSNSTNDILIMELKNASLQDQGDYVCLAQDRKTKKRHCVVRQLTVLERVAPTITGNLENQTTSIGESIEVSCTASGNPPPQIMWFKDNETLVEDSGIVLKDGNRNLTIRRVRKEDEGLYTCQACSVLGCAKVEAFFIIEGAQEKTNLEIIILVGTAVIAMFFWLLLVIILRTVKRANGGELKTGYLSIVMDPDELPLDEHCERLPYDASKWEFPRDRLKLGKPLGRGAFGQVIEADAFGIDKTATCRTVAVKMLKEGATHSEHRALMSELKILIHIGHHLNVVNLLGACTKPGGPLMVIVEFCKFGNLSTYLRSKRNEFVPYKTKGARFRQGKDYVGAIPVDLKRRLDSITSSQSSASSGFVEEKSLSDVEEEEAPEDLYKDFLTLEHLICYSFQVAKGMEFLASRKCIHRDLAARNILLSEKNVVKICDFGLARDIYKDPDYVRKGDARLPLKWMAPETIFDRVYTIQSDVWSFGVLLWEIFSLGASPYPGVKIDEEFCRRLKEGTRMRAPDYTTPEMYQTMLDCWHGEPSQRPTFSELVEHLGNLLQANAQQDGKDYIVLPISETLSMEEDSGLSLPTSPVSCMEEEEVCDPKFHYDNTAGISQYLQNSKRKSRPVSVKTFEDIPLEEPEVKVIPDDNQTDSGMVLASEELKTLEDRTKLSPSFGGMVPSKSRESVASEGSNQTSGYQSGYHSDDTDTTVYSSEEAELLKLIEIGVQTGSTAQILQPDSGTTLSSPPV
Method: 3. n Vitro Enzymatic Activity Assay for Compounds on VEGFR2
The compounds were diluted 5-fold with 100% DMSO starting from 1 mM (7 concentrations in total), and 2 μL of each concentration was added to 48 μL of reaction buffer (50 mM HEPES pH 7.5, 0.1 mM Na3VO4, 5 mM MgCl2, 1 mM MnCl2, 1 mM DTT, 0.001% Tween 20, and 100 μg/ml BSA) for dilution and mixing. 2.5 μL of compounds and 5 μL of GST-VEGFR2 (final concentration of 0.1 nM) were added to a 384-well plate (OptiPlate-384, purchased from PerkinElmer), the mixture was mixed by centrifugation, and 2.5 μL of ATP (final concentration of 2.5 μM) and TK Peptide Substrate mixture (final concentration of 1 μM, purchased from Cisbio) were added to start the reaction, with a total reaction volume of 10 μL. The 384-well plate was placed in an incubator and reacted at 23° C. for 1.5 h before the reaction was stopped by the addition of 5 μL of TK Antibody (purchased from Cisbio) and 5 μL of Streptavidin-XL665 (purchased from Cisbio). After further incubation in the incubator for 1 h. fluorescence values (excitation at 320 nm, detecting emitted light at 665 nm and 620 nm, and a ratio of the two as an enzyme activity signal) were read on Envision (purchased from PerkinElmer). The enzymatic activity signal of VEGFR2 was measured at 7 concentrations for each compound and the data were calculated using GraphPad Prism software to obtain the IC50 value for the compound.

IC50 [1]	IC50 [2]	Compound
1.34 nM		COc1ncc(CN2C3CC2CN(c2ccc(-c4cc(N5CC(C)(O)C5)cn5ncc(C#N)c45)cn2)C3)cn1 [Example 58, 6-(3-hydroxy-3-methylazetidin-1-yl)-4-(6-(6-((2-methoxypyrimidin-5-yl)methyl)-3,6-diazabicyclo[3.1.1]heptan-3-yl)pyridin-3-yl)pyrazolo[1,5-a]pyridine-3-carbonitrile]
1.58 nM		CS(=O)(=O)c1ccc(CN2CCN(c3ccc(-c4cc(-c5cnn(C(F)F)c5)cn5ncc(C#N)c45)cn3)CC2)nc1 [Example 80, 6-(1-(difluoromethyl)-1Hpyrazol-4-yl)-4-(6-(4-((5-(methylsulfonyl)pyridin-2-yl)methyl)piperazin-1-yl)pyridin-3-yl) pyrazolo[1,5-a] pyridine-3-carbonitrile]
1.33 nM		CSc1ccc(CN2CCN(c3ccc(-c4cc(-c5cnn(C(F)F)c5)cn5ncc(C#N)c45)cn3)CC2)cc1 [Example 81, 4-(6-(4-(4-(methylthio)benzyl)piperazin-1-yl)pyridin-3-yl)-6-(1-(difluoromethyl)-1Hpyrazol-4-yl)pyrazolo[1,5-a]pyridine-3-carbonitrile]
1.11 nM		COC/C=C/C(=O)N1C2CC1CN(c1ccc(-c3cc(-c4cnn(C(F)F)c4)cn4ncc(C#N)c34)cn1)C2 [Example 62, (E)-6-(1-(difluoromethyl)-1Hpyrazol-4-yl)-4-(6-(6-(4-methoxybut-2-enoyl)-3,6-diazabicyclo[3.1.1]heptan-3-yl)pyridin-3-yl)pyrazolo[1,5-a]pyridine-3-carbonitrile]
0.419 nM	40.3 nM	CC(C)(O)COc1cc(-c2ccc(N3CC4CC(C3)N4Cc3ccc(S(C)(=O)=O)cc3)nc2)c2c(C#N)cnn2c1 [Example 38, 6-(2-hydroxy-2-methylpropoxy)-4-(6-(6-(4-(methylsulfonyl)benzyl)-3,6-diazabicyclo[3.1.1]heptan-3-yl)pyridin-3-yl)pyrazolo[1,5-a]pyridine-3-carbonitrile]
	13 nM	CCSc1ccc(CN2CCN(c3ccc(-c4cc(-c5cnn(C)c5)cn5ncc(C#N)c45)cn3)CC2)cn1 [Example 18, 6-(1-methyl-1Hpyrazol-4-yl)-4(6-(4-((6-(ethylthio)pyridin-3-yl)methyl)piperazin-1-yl)pyridin-3-yl)pyrazolo[1,5-a]pyridine-3-carbonitnile]
1.07 nM	10.1 nM	CN(C)C(=O)Cn1cc(-c2cc(-c3ccc(N4CCN(Cc5ccc(S(C)(=O)=O)cc5)CC4)nc3)c3c(C#N)cnn3c2)cn1 [Example 54]
0.536 nM	2.28 nM	COc1ccc(CN2C3CC2CN(c2ccc(-c4cc(N5CC(OC)C5)cn5ncc(C#N)c45)cn2)C3)cn1 [Example 27, 6-(3-methoxyazetidin-1-yl)-4-(6-(6-((6-methoxypyridin-3-yl)methyl)-3,6-diazabicyclo[3.1.1]heptan-3-yl)pyridin-3-yl)pyrazolo[1,5-a]pyridine-3-carbonitrile]
0.247 nM		CCn1cc(-c2cc(-c3ccc(N4CC5CC(C4)N5Cc4ccc(S(C)(=O)=O)cc4)nc3)c3c(C#N)cnn3c2)cn1 [Example 44, 6-(1-ethyl-1Hpyrazol-4-yl)-4-(6-(6-(4-(methylsulfonyl)benzyl)-3,6-diazabicyclo[3.1.1]heptan-3-yl)pyridin-3 yl)pyrazolo[1,5-a]pyridine-3-carbonitrile]

Second part, the compound before the results:

Compound	IC50 [1]	IC50 [2]
N#Cc1cnn2cc(-c3cnn(C(F)F)c3)cc(-c3ccc(N4CC5CC(C4)N5Cc4ccc([N+](=O)[O-])cc4)nc3)c12 [Example 83, 4-(6-(6-(4-nitrobenzyl)-3,6-diazabicyclo[3.1.1]heptan-3-yl)pyridin-3-yl)-6-(1-(difluoromethyl)-1Hpyrazol-4-yl)pyrazolo[1,5-a]pyridine-3-carbonitrile]	0.12 nM	4.59 nM
CSc1ccc(CN2C3CC2CN(c2ccc(-c4cc(-c5cnn(C)c5)cn5ncc(C#N)c45)cn2)C3)cc1 [Example 59, 6-(1-methyl-1Hpyrazol-4-yl)-4-(6-(6-(4-(methylthio)benzyl)-3,6-diazabicyclo[3.1.1]heptan-3-yl)pyridin-3-yl)pyrazolo[1,5-a]pyridine-3-carbonitrile]	0.066 nM	0.154 nM
CSc1ccc(CN2C3CC2CN(c2ccc(-c4cc(-c5cnn(C(F)F)c5)cn5ncc(C#N)c45)cn2)C3)cc1 [Example 82, 6-(1-difluoromethyl-1Hpyrazol-4-yl)-4-(6-(6-(4-(methylthio)benzyl)-3,6-diazabicyclo[3.1.1]heptan-3-yl)pyridin-3-yl)pyrazolo[1,5-a]pyridine-3-carbonitrile]	0.136 nM	0.734 nM
Cn1cc(-c2cc(-c3ccc(N4CC5CCC(C4)N5Cc4ccc(S(C)(=O)=O)cc4)nc3)c3c(C#N)cnn3c2)cn1 [Example 57, 6-(1-methyl-1Hpyrazol-4-yl) 4-(6-(8-(4-(methylsulfonyl)benzyl)-3,8-diazabicyclo[3.2.1]octan-3-yl)pyridin-3-yl)pyrazolo[1,5-a]pyridine-3-carbonitrile]		8.94 nM
CSc1ccc(CN2C3CC2CN(c2ccc(-c4cc(-c5cnn(C)c5)cn5ncc(C#N)c45)cn2)C3)cn1 [Example 50, 6-(1-methyl-1Hpyrazol-4-yl)-4-(6-(6-((6-(methylthio)pyridin-3-yl)methyl)-3,6-diazabicyclo[3.1.1]heptan-3-yl)pyridin-3-yl)pyrazolo[1,5-a]pyridine-3-carbonitrile]	0.181 nM	
CSc1ccc(CN2CCN(c3ccc(-c4cc(-c5cnn(C(F)F)c5)cn5ncc(C#N)c45)cn3)CC2)cn1 [Example 75, 6-(1-(difluoromethyl)-1Hpyrazol-4-yl)-4-(6-(4-((6-(methylthio)pyridin-3-yl)methyl)piperazin-1-yl)pyridin-3-yl) pyrazolo[1,5-a] pyridine-3-carbonitrile]	0.943 nM	
CS(=O)(=O)c1ccc(CN2CCN(c3ccc(-c4cc(N5CC(C#N)C5)cn5ncc(C#N)c45)cn3)CC2)cc1 [Example 40, 6-(3-cyanoazetidin-1-yl)-4-(6-(4-(4-(methylsulfonyl)benzyl)piperazin-1-yl)pyridin-3-yl)pyrazolo[1,5-α]pyridin-3-carbonitrile]	1.31 nM	
CSc1ccc(CN2C3CC2CN(c2ccc(-c4cc(-c5cnn(C(F)F)c5)cn5ncc(C#N)c45)cn2)C3)nc1 [Example 66, 6-(1-(difluoromethyl)-1Hpyrazol-4-yl)-4-(6-(6-((5-(methylthio)pyridin-2-yl)methyl)-3,6-diazabicyclo[3.1.1]heptan-3-yl)pyridin-3-yl)pyrazolo[1,5-a]pyridine-3-carbonitrile]	0.268 nM	2.94 nM
CS(=O)(=O)c1ccc(CN2CCN(c3ccc(-c4cc(-c5cnn(C(F)F)c5)cn5ncc(C#N)c45)cn3)CC2)cn1 [Example 63, 6-(1-(difluoromethyl)-1Hpyrazol-4-yl)-4-(6-(4-((6-(methylsulfonyl)pyridin-3-yl)methyl)piperazin-1-yl)pyridin-3-yl)pyrazolo[1,5-a]pyridine-3-carbonitrile]	2.96 nM	
CS(=O)(=O)c1ccccc1CN1CCN(c2ccc(-c3cc(-c4cnn(C(F)F)c4)cn4ncc(C#N)c34)cn2)CC1 [Example 48, 6-(1-difluoromethyl-1Hpyrazol-4-yl)-4-(6-(4-(2-(methylsulfonyl)benzyl)piperazin-1-yl)pyridin-3-yl)pyrazolo[1,5-a]pyridine-3-carbonitrile]	0.57 nM	10.1 nM
